{"source": "patent US10246456B2", "about": "“IRAK4 inhibiting agents” (BIOGEN MA INC., priority 2014, dated 2019)", "data": [{"target": "IRAK4 (Homo sapiens (Human), UniProt Q9NWZ3)", "sequence (Q9NWZ3 whole entry, species assumed)": "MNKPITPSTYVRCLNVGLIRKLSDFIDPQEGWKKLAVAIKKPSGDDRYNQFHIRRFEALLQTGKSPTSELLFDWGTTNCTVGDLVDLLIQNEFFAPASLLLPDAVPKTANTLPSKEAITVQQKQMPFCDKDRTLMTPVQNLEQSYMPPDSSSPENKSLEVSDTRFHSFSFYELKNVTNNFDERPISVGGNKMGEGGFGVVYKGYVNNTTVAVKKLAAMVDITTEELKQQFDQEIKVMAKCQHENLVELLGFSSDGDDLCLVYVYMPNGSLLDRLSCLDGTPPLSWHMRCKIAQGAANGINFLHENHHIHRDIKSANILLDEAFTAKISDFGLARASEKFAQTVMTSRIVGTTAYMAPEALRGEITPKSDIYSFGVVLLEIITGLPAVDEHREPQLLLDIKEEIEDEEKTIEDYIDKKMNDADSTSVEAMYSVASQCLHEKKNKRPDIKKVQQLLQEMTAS", "experiment": "IRAK-4 AlphaScreen biochemical kinase assay", "details": "1 nM IRAK4, 1 mM ATP, 3.5 h at RT", "outline": "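AlphaScreen read-out: streptavidin beads bind the biotinylated peptide and protein A beads bind the anti-phosphothreonine antibody, so energy transfer reports phosphorylation of the peptide. The kinase is human IRAK-4.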", "units": {"IC50": "nM"}, "values": [{"molecule": "N#Cc1ccnc(-n2ncc3ccc(-c4cncc(N)c4)cc32)n1", "note": "[Example 37, 2-(6-(5-aminopyridin-3-yl)-1H-indazol-1-yl)pyrimidine-4-carbonitrile]", "IC50": "< 100"}, {"molecule": "N#Cc1cccc(-n2ncc3ccc(-c4cncc(N)c4)cc32)n1", "note": "[Example 29, 6-(6-(5-aminopyridin-3-yl)-1H-indazol-1-yl)picolinonitrile]", "IC50": "< 100"}, {"molecule": "Cc1ccn(-c2cc(-c3cccc([C@H](C)N)n3)cc3c2cnn3-c2cccc(CO)n2)n1", "note": "[Example 353, (S)-(6-(6-(6-(1-aminoethyl)pyridin-2-yl)-4-(3-methyl-1H-pyrazol-1-yl)-1H-indazol-1-yl)pyridin-2-yl)methanol]", "IC50": "< 100"}, {"molecule": "CCc1cccc(-n2ncc3ccc(-c4cccc(C(C)=O)n4)cc32)n1", "note": "[Example 228, 1-(6-(1-(6-ethylpyridin-2-yl)-1H-indazol-6-yl)pyridin-2-yl)ethanone]", "IC50": "100 to 1000"}, {"molecule": "CNC(C)c1cccc(-c2ccc3cnn(-c4cccc(C(F)(F)F)n4)c3c2)n1", "note": "(single isomer, unassigned) [Example 117, N-methyl-1-(6-(1-(6-(trifluoromethyl)pyridin-2-yl)-1H-indazol-6-yl)pyridin-2-yl)ethanamine]", "IC50": "< 100"}, {"molecule": "CC(=O)c1cccc(-c2ccc3cnn(-c4nc(C)cs4)c3c2)n1", "note": "[Example 239]", "IC50": "> 10000"}, {"molecule": "CNc1cc(-c2cccc(C(C)N)n2)cc2c1cnn2-c1cccc(C)n1", "note": "(stereo not drawn) [Example 101, 6-(6-(1-aminoethyl)pyridin-2-yl)-N-methyl-1-(6-methylpyridin-2-yl)-1H-indazol-4-amine]", "IC50": "< 100"}, {"molecule": "Cc1cc(C)nc(-n2ncc3ccc(-c4cccc(N)c4)cc32)c1", "note": "[Example 23, 3-(1-(4,6-dimethylpyridin-2-yl)-1H-indazol-6-yl)aniline]", "IC50": "1000 to 10000"}, {"molecule": "CC(N)c1cccc(-c2ccc3cnn(-c4ccnc(C#N)n4)c3c2)n1", "note": "(stereo not drawn) [Example 562, 4-(6-(6-(1-aminoethyl)pyridin-2-yl)-1H-indazol-1-yl)pyrimidine-2-carbonitrile]", "IC50": "1000 to 10000"}, {"molecule": "CCC[C@H](N)c1ccnc(-c2ccc3cnn(-c4cccc(CO)n4)c3c2)c1", "note": "[Example 404, (S)-(6-(6-(4-(1-aminobutyl)pyridin-2-yl)-1H-indazol-1-yl)pyridin-2-yl)methanol]", "IC50": "100 to 1000"}, {"molecule": "COC(=O)c1cc(-c2cncc(N)c2)cc2c1cnn2-c1cccc(C(F)(F)F)n1", "note": "[Example 50, methyl 6-(5-aminopyridin-3-yl)-1-(6-(trifluoromethyl)pyridin-2-yl)-1H-indazole-4-carboxylate]", "IC50": "< 100"}, {"molecule": "Cc1cccc(-c2ncc3ccc(-c4cccc(N)c4)cn23)n1", "note": "[Example 42, 3-(3-(6-methylpyridin-2-yl)imidazo[1,5-a]pyridin-6-yl)aniline]", "IC50": "< 100"}, {"molecule": "COC(=O)c1cc(-c2cccc(C(C)N)n2)cc2c1cnn2-c1cccc(C(F)(F)F)n1", "note": "(stereo not drawn) [Example 56, methyl 6-(6-(1-aminoethyl)pyridin-2-yl)-1-(6-(trifluoromethyl)pyridin-2-yl)-1H-indazole-4-carboxylate]", "IC50": "< 100"}, {"molecule": "CCc1cccc(-c2ncc3ccc(-c4cccc(C(C)N)n4)cn23)n1", "note": "(stereo not drawn) [Example 293, 1-(6-(3-(6-ethylpyridin-2-yl)imidazo[1,5-a]pyridin-6-yl)pyridin-2-yl)ethanamine]", "IC50": "< 100"}, {"molecule": "N#Cc1cccc(-c2ncc3ccc(-c4cncc(N)c4)cn23)c1", "note": "[Example 75, 3-(6-(5-aminopyridin-3-yl)imidazo[1,5-a]pyridin-3-yl)benzonitrile]", "IC50": "1000 to 10000"}, {"molecule": "CC(N)c1cncc(-c2ccc3cnn(-c4cccc(C(F)(F)F)n4)c3c2)c1", "note": "(stereo not drawn) [Example 90, 1-(5-(1-(6-(trifluoromethyl)pyridin-2-yl)-1H-indazol-6-yl)pyridin-3-yl)ethanamine]", "IC50": "< 100"}, {"molecule": "C[C@H](N)c1cccc(-c2cc(-c3cc(C(F)(F)F)[nH]n3)c3cnn(-c4cccc(CO)n4)c3c2)n1", "note": "[Example 383, (S)-(6-(6-(6-(1-aminoethyl)pyridin-2-yl)-4-(5-(trifluoromethyl)-1H-pyrazol-3-yl)-1H-indazol-1-yl)pyridin-2-yl)methanol]", "IC50": "< 100"}, {"molecule": "N[C@@H](CCCO)c1cccc(-c2ccc3cnn(-c4cccc(CO)n4)c3c2)n1", "note": "[Example 396, (S)-4-amino-4-(6-(1-(6-(hydroxymethyl)pyridin-2-yl)-1H-indazol-6-yl)pyridin-2-yl)butan-1-ol]", "IC50": "< 100"}, {"molecule": "CC[C@H](N)c1cccc(-c2cc(OCCOC)c3cnn(-c4cccc(CO)n4)c3c2)n1", "note": "[Example 587, (S)-(6-(6-(6-(1-aminopropyl)pyridin-2-yl)-4-(2-methoxyethoxy)-1H-indazol-1-yl)pyridin-2-yl)methanol]", "IC50": "< 100"}, {"molecule": "COCc1cccc(-n2ncc3ccc(-c4cccc(C(C)N)n4)cc32)n1", "note": "(stereo not drawn) [Example 279, 1-(6-(1-(6-(methoxymethyl)pyridin-2-yl)-1H-indazol-6-yl)pyridin-2-yl)ethanamine]", "IC50": "< 100"}, {"molecule": "CCC[C@@H](N)c1ccnc(-c2cc(OC)c3cnn(-c4cccc(CO)n4)c3c2)n1", "note": "[Example 576, (R)-(6-(6-(4-(1-aminobutyl)pyrimidin-2-yl)-4-methoxy-1H-indazol-1-yl)pyridin-2-yl)methanol]", "IC50": "< 100"}, {"molecule": "CCC[C@H](N)c1cccc(-c2cc(OCC3CC(F)(F)C3)c3cnn(-c4cccc(CO)n4)c3c2)n1", "note": "[Example 598, (S)-(6-(6-(6-(1-aminobutyl)pyridin-2-yl)-4-((3,3-difluorocyclobutyl)methoxy)-1H-indazol-1-yl)pyridin-2-yl)methanol]", "IC50": "< 100"}, {"molecule": "CCC(N)c1cccc(-c2ccc3cnn(-c4cccc(C)n4)c3c2)n1", "note": "(stereo not drawn) [Example 263, 1-(6-(1-(6-methylpyridin-2-yl)-1H-indazol-6-yl)pyridin-2-yl)propan-1-amine]", "IC50": "< 100"}, {"molecule": "Cc1cccc(-n2ncc3ccc(-c4ccc(C(F)(F)F)c(C(C)N)n4)cc32)n1", "note": "(stereo not drawn) [Example 255, 1-(6-(1-(6-methylpyridin-2-yl)-1H-indazol-6-yl)-3-(trifluoromethyl)pyridin-2-yl)ethanamine]", "IC50": "100 to 1000"}, {"molecule": "NC(=O)c1cccc(-n2ncc3ccc(-c4cncc(N)c4)cc32)n1", "note": "[Example 31, 6-(6-(5-aminopyridin-3-yl)-1H-indazol-1-yl)picolinamide]", "IC50": "< 100"}, {"molecule": "COC(=O)c1cccc(-n2ncc3ccc(-c4cccc(/C(C)=N/O)n4)cc32)n1", "note": "[Example 237, (E)-methyl 6-(6-(6-(1-(hydroxyimino)ethyl)pyridin-2-yl)-1H-indazol-1-yl)picolinate]", "IC50": "> 10000"}, {"molecule": "C=CC[C@H](N)c1cccc(-c2ccc3cnn(-c4cccc(CO)n4)c3c2)n1", "note": "[Example 435, (S)-(6-(6-(6-(1-aminobut-3-en-1-yl)pyridin-2-yl)-1H-indazol-1-yl)pyridin-2-yl)methanol]", "IC50": "< 100"}, {"molecule": "COC(=O)c1cc(-c2cccc(C(C)N)n2)cc2c1cnn2-c1cccc(C)n1", "note": "(stereo not drawn) [Example 112, methyl 6-(6-(1-aminoethyl)pyridin-2-yl)-1-(6-methylpyridin-2-yl)-1H-indazole-4-carboxylate]", "IC50": "< 100"}, {"molecule": "CCc1cccc(-n2ncc3ccc(-c4cccc(C(C)N)n4)cc32)n1", "note": "(stereo not drawn) [Example 120, 1-(6-(1-(6-ethylpyridin-2-yl)-1H-indazol-6-yl)pyridin-2-yl)ethanamine]", "IC50": "< 100"}, {"molecule": "Cc1cccc(-c2ncc3ccc(-c4cccc(C(C)N)n4)cn23)n1", "note": "(stereo not drawn) [Example 99, 1-(6-(3-(6-methylpyridin-2-yl)imidazo[1,5-a]pyridin-6-yl)pyridin-2-yl)ethanamine]", "IC50": "< 100"}]}]}
